Source: article PMC2653417 (Bioorganic & medicinal chemistry letters, 2008)

How the values were obtained:
Hsp90 [1] = target: T1, Hsp90 (Homo sapiens, UniProt P07900); conditions: cited from earlier work
Hsp90 [2] = target: T1, Hsp90; conditions: cited from earlier work; remark: listed apart in the source
PRAS40 = test: Western blot assay, client protein degradation; assay type: cell-based
[3] = read-out: IC50 cell growth inhibition; cited from earlier work
[4] = test system: HER2 over-expressing SKBr3 breast cancer cells; test: cell growth inhibition assay; assay type: cell-based; conditions: Homo sapiens, SK-BR-3, 72 h, read-out: IC50 SKBr3
Raf-1 = test: Western blot assay, client protein degradation; assay type: cell-based
Hsp90 [5] = target: T1, Hsp90; test: fluorescent polarization

Row | IC50 [4] | SMILES | effect on PRAS40 degradation (PRAS40) | effect on Raf-1 degradation (Raf-1) | further results
1 | 6 µM | COc1ccc(O)c(O)c1-c1cc(NS(=O)(=O)c2cc(Cl)ccc2Cl)ccc1N [Compound 13] | neither had any effect | neither had any effect | IC50 FP (Hsp90 [5]; mean of 2 independent determinations, maximum concentration tested 50 µM): sub-micromolar
2 | 4.4 µM | O=S(=O)(Nc1ccc(O)c(-c2c(O)ccc3c2OCO3)c1)c1cc(Cl)ccc1Cl [Compound 17] |  |  | 

The next lines start with the molecule.

Row | SMILES | IC50 [4] | effect on PRAS40 degradation (PRAS40) | effect on Raf-1 degradation (Raf-1) | further results
3 | O=S(=O)(Nc1ccc(O)c(-c2c(O)ccc3ccccc23)c1)c1ccccc1 [Compound 1] |  |  |  | activity in FP assay (Hsp90 [1]): low micromolar activity; activity in malachite green assay (Hsp90 [2]): low micromolar activity
4 | O=S(=O)(Nc1ccc(O)c(-c2c(O)ccc3ccccc23)c1)c1cc(Cl)ccc1Cl [Compound 2] | 6.5 µM | neither had any effect | neither had any effect | IC50 [3]: 29 µM
5 | O=S(=O)(Nc1ccc(O)c(-c2ccccc2O)c1)c1cc(Cl)ccc1Cl [Compound 9a] |  |  |  | fold less activity than 2 in FP assay (Hsp90 [5]; relative to compound 2): about 20 fold
